Results as given in patent US5288730A, “Azabicyclic compounds, pharmaceutical compositions containing them and their use in therapy” (Merck Sharp & Dohme Limited, priority 1991, dated 1994).
Where a name gives a salt, the structure may show the parent alone.

Molecular target: T1, human neurokinin-1-receptor (NK1R) (Homo sapiens, UniProt P25103)
T1 construct: expressed in transfected cells
Assay: Substance P antagonism assay: 125I-substance P binding to human NK1R expressed in COS or CHO cells
Conditions: 125I-substance P displacement, 4° C. or room temperature, 1 hour
Method: To express the cloned human neurokinin-1-receptor (NK1R) transiently in COS, the cDNA for the human NK1R was cloned into the expression vector pCDM9 which was derived from pCDM8 (INVITROGEN) by inserting the ampicillin resistance gene (nucleotide 1973 to 2964 from BLUESCRIPT SK+ (trademark, STRATAGENE, La Jolla, Calif., USA)) into the Sac II site. Transfection of 20 ug of the plasmid DNA into 10 million COS cells was achieved by electroporation in 800 μof transfection buffer (135 mM NaCl, 1.2 mM CaCl2, 1.2 mM MgCl2 2.4 mM K2 HPO4, 0.6 mM KH2 PO4, 10 mM glucose, 10 mM N-2-hydroxyethyl-piperazine-N'-2-ethane sulphonic acid (HEPES) pH 7.4) at 260 V and 950 μusing the IBI GENEZAPPER (trademark IBI, New Haven, Conn., USA). The cells were incubated in 10% fetal calf serum, 2 mM glutamine, 100 U/ml penicillin-streptomycin, and 90% DMEM media (GIBCO, Grand Island, N.Y., USA) in 5% CO2 at 37° C. for three days before the binding assay.
To establish a stable cell line expressing cloned human NK1R, the cDNA was subcloned into the vector pRcCMV (INVITROGEN). Transfection of 20 ug of the plasmid DNA into CHO cells was achieved by electroporation in 800 μl of transfection buffer supplemented with 0.625 mg/ml Herring sperm DNA at 300 V and 950 μF using the IBI GENEZAPPER (IBI). The transfected cells were incubated in CHO media [10% fetal calf serum, 100 U/ml penicillin-streptomycin, 2 mM glutamine, 1/500 hypoxanthine-thymidine (ATCC), 90% IMDM media (JRH BIOSCIENCES, Lenexa, Kans., USA), 0.7 mg/ml G418 (GIBCO)] in 5% CO2 at 37° C. until colonies were visible. Each colony was separated and propagated. The cell clone with the highest number of human NK1R was selected for subsequent applications such as drug screening.
The binding assay of human NK1R expressed in either COS or CHO cells is based on the use of ^125 I-substance P (^125 I-SP, from DU PONT, Boston, Mass.) as a radioactively labeled ligand which competes with unlabeled substance P or any other ligand for binding to the human NK1R. Monolayer cell cultures of COS or CHO were dissociated by the non-enzymatic solution (SPECIALTY MEDIA, Lavellette, N.J.) and resuspended in appropriate volume of the binding buffer (50 mM Tris pH 7.5, 5 mM MnCl2, 150 mM NaCl, 0.04 mg/ml bacitracin, 0.004 mg/ml leupeptin, 0.2 mg/ml BSA, 0.01 mM phosphoramidon) such that 200 μl of the cell suspension would give rise to about 10,000 cpm of specific ^125 I-SP binding (approximately 50,000 to 200,000 cells). In the binding assay, 200 ul of cells were added to a tube containing 20 ul of 1.5 to 2.5 nM of ^125 I-SP and 20 μl of unlabeled substance P or any other test compound. The tubes were incubated at 4° C. or at room temperature for 1 hour with gentle shaking. The bound radioactivity was separated from unbound radioactivity by GF/C filter (BRANDEL, Gaithersburg, Md.) which was prewetted with 0.1% polyethylenimine. The filter was washed with 3 ml of wash buffer (50 mM Tris pH 7.5, 5 mM MnCl2, 150 mM NaCl) three times and its radioactivity was determined by gamma counter.

T1 sequence (P25103 whole entry): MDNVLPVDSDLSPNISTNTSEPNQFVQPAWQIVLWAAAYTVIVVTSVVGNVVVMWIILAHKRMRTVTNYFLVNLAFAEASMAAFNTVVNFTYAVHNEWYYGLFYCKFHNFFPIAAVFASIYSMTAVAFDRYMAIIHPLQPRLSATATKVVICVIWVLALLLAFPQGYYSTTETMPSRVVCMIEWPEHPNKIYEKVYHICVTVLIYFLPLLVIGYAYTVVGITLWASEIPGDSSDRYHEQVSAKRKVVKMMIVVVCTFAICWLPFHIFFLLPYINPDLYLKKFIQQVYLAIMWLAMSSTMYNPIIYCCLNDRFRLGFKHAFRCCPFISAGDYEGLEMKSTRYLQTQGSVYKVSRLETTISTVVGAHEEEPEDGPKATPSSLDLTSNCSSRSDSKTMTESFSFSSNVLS

SMILES	IC50
COc1ccc(C(Cc2ccccc2)C2C(OCc3cc(C(F)(F)F)cc(C(F)(F)F)c3)C3CCN2CC3)cc1 (single isomer, unassigned) [3: ISOMER A]	3 nM
FC(F)(F)c1cc(COC2C3CCN(CC3)C2C(c2ccccc2)C2CCCCC2)cc(C(F)(F)F)c1 (stereo not drawn) [Example 5, 3-(3,5-Bis(trifluoromethyl)phenyl)methyloxy-2-(α-cyclohexylbenzyl)-1-azabicyclo[2.2.2]octane oxalate hemihydrate]	3 nM
FC(F)(F)c1cc(COC2C3CCN(CC3)C2C(Cc2ccccc2)c2ccccc2)cc(C(F)(F)F)c1 (single isomer, unassigned) [2: ISOMER A]	4.5 nM
FC(F)(F)c1cc(COC2C3CCN(CC3)C2C(Cc2ccccc2)c2ccccc2)cc(C(F)(F)F)c1 (single isomer, unassigned) [2: ISOMER C]	> 100 nM
Cc1cc(C)cc(COC2C3CCN(CC3)C2C(Cc2ccccc2)c2ccccc2)c1 (single isomer, unassigned) [1: ISOMER A]	2.4 nM
FC(F)(F)c1cc(COC2C3CCN(CC3)C2C(Cc2ccccc2)c2ccccc2)cc(C(F)(F)F)c1 (single isomer, unassigned) [2: ISOMER B]	6.3 nM
COc1cccc(C(Cc2ccccc2)C2C(OCc3cc(C(F)(F)F)cc(C(F)(F)F)c3)C3CCN2CC3)c1 (single isomer, unassigned) [4: ISOMER B]	1.8 nM
Cc1cc(C)cc(COC2C3CCN(CC3)C2C(Cc2ccccc2)c2ccccc2)c1 (single isomer, unassigned) [1: ISOMER B]	1.8 nM
Cc1cc(C)cc(COC2C3CCN(CC3)C2C(Cc2ccccc2)c2ccccc2)c1 (single isomer, unassigned) [1: ISOMER C]	> 100 nM
COc1cccc(C(Cc2ccccc2)C2C(OCc3cc(C(F)(F)F)cc(C(F)(F)F)c3)C3CCN2CC3)c1 (single isomer, unassigned) [4: ISOMER A]	10 nM
